Reference: patent US20220348592A1, “FUSED HETEROCYCLIC DERIVATIVES” (Janssen Sciences Ireland Unlimited Company, priority 2019, published 2022)

Tests used:
HBV = assay: Anti-HBV activity: intracellular HBV DNA by real-time PCR in HepG2.117 cell line; type: cell-based, Hepatitis B virus; details: Hepatitis B virus, 72 h; HepG2.117 cells, 3 days of treatment, intracellular HBV DNA by real-time PCR, mean value; read-out: HBV-AVE-HepG2.117 EC50 (μM, mean value)
How it was run: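 HepG2.117 cells, a Tet-off inducible HBV-producing line, induced to replicate HBV and then treated with serially diluted compound. After 3 days, intracellular HBV DNA quantified by real-time PCR with HBV-specific primers and probe.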

[1] = Cytotoxicity in HepG2.117 cells, ATPlite Luminescence Assay; type: cell-based, human; details: human, incubated for 3 days, mean value, read-out: TOX-HepG2.117 CC50 (μM, mean value)
Method: Cytotoxicity of the compounds was tested using HepG2 or HepG2.117 cells, incubated for 3 days in the presence of compounds. The viability of the cells was assessed using the PERKIN ELMER ATPlite Luminescence Assay System.”

Row | SMILES | EC50 (HBV) | CC50 at 3 days [1]
1 | C[C@@H]1Cc2nn3c(c2CN1C(=O)c1ccc(Cl)c(Cl)c1)C(=O)N(Cc1ccccc1OC(F)F)CC3 [Example C67] | 0.07 µM | 22.5 µM
2 | COc1ccc(CN2CCn3nc4c(c3C2=O)CN(C(=O)c2ccc(C(F)F)c(F)c2)CC4)cc1 [Example C68] | 0.321 µM | 10.6 µM
3 | C[C@@H]1Cc2nn3c(c2CN1C(=O)c1ccc(Cl)c(Cl)c1)C(=O)N(Cc1ccc(OC(F)F)cn1)CC3 [Example C69] | 0.063 µM | 14.5 µM
4 | COc1ccc(CN2CCn3nc4c(c3C2=O)CN(C(=O)c2ccc(C(F)F)c(C#N)c2)CC4)cc1 [Example C70] | 0.232 µM | > 50 µM
5 | O=C(c1ccc(Cl)cc1F)N1CCc2nn3c(c2C1)C(=O)N(Cc1ccccn1)CC3 [Example C72] | > 2.5 µM | > 50 µM
6 | O=C(c1cnc(Cl)c(Cl)c1)N1CCc2nn3c(c2C1)C(=O)N(Cc1ccccn1)CC3 [Example C73] | > 2.5 µM | > 50 µM
7 | Cc1cc(Cl)ccc1C(=O)N1CCc2nn3c(c2C1)C(=O)N(Cc1ccccn1)CC3 [Example C74] | > 2.5 µM | > 50 µM
8 | COc1cc(Cl)ccc1C(=O)N1CCc2nn3c(c2C1)C(=O)N(Cc1ccccn1)CC3 [Example C76] | 0.983 µM | > 25 µM
9 | O=C(c1ccc(Cl)c(F)c1)N1CCc2nn3c(c2C1)C(=O)N(Cc1ccccn1)CC3 [Example C78] | 0.707 µM | > 50 µM
10 | C[C@@H]1Cc2nn3c(c2CN1C(=O)c1ccc(Cl)c(Cl)c1)C(=O)N(Cc1ccccc1F)CC3 [Example C80] | 0.05 µM | 26.1 µM
11 | C[C@@H]1Cc2nn3c(c2CN1C(=O)c1ccc(Cl)c(Cl)c1)C(=O)N(Cc1ccc(C#N)cc1)CC3 [Example C82] | 0.019 µM | 32.5 µM
12 | O=C(c1ccc(Cl)c(Cl)c1)N1CCc2nn3c(c2C1)C(=O)N(Cc1ccccn1)CCC3 [Example C83, 2-(3,4-dichlorobenzoyl)-10-(pyridin-2-ylmethyl)-1,2,3,4,7,8,9,10-octahydro-11H-pyrido[4′,3′:3,4]pyrazolo[1,5-a][1,4]diazepin-11-one] | 0.229 µM | > 50 µM
13 | COc1ccc(C(C)N2CCn3nc4c(c3C2=O)CN(C(=O)c2ccc(Cl)c(Cl)c2)[C@H](C)C4)cc1F (some centres unmarked) [Example C86] | 0.046 µM | > 50 µM
14 | CC(c1cc[nH]n1)N1CCn2nc3c(c2C1=O)CN(C(=O)c1ccc(Cl)c(Cl)c1)[C@H](C)C3 (some centres unmarked) [Example C87] | 0.066 µM | > 50 µM
15 | CC(c1ccc(C#N)cc1)N1CCn2nc3c(c2C1=O)CN(C(=O)c1ccc(Cl)c(Cl)c1)[C@H](C)C3 (some centres unmarked) [Example C88] | 0.038 µM | > 48 µM
16 | C[C@@H]1Cc2nn3c(c2CN1C(=O)c1ccc(Cl)c(Cl)c1)C(=O)N(C(C)(C)c1ccc(OC(F)F)cc1)CC3 [Example C90] | 0.667 µM | 21.9 µM
17 | C[C@@H]1Cc2nn3c(c2CN1C(=O)c1ccc(Cl)c(Cl)c1)C(=O)N(Cc1ccc(Cl)nc1)CC3 [Example C91] | 0.083 µM | 36.7 µM
18 | COc1ccc(C(C)N2CCn3nc4c(c3C2=O)CN(C(=O)c2ccc(Cl)c(Cl)c2)[C@H](C)C4)cc1OC (some centres unmarked) [Example C92] | 0.025 µM | 24.4 µM
19 | CC(c1ccccc1)N1CCn2nc3c(c2C1=O)CN(C(=O)c1ccc(Cl)c(Cl)c1)[C@H](C)C3 (some centres unmarked) [Example C93] | 0.055 µM | 30 µM
20 | C[C@@H]1Cc2nn3c(c2CN1C(=O)c1cc2c(Cl)c(Cl)ccc2[nH]1)C(=O)N(Cc1ccccn1)CC3 [Example C94, (R)-2-(4,5-dichloro-1H-indole-2-carbonyl)-3-methyl-9-(pyridin-2-ylmethyl)-1,2,3,4,8,9-hexahydropyrido[4′,3′:3,4]pyrazolo[1,5-a]pyrazin-10(7H)-one] | 0.162 µM | 4.77 µM
21 | C[C@@H]1Cc2nn3c(c2CN1C(=O)c1ccc(Cl)c(Cl)c1)C(=O)N(Cc1cccc(F)c1C#N)CC3 [Example C95] | 0.2 µM | > 47 µM
22 | C[C@@H]1Cc2nn3c(c2CN1C(=O)c1cc2c(Cl)cccc2[nH]1)C(=O)N(Cc1ccccn1)CC3 [Example C96] | 0.025 µM | 10.7 µM
23 | C[C@@H]1Cc2nn3c(c2CN1C(=O)c1cc2c(F)c(F)c(F)cc2[nH]1)C(=O)N(Cc1ccccn1)CC3 [Example C97] | 0.011 µM | 9.79 µM
24 | CC(c1ccc(Br)cc1)N1CCn2nc3c(c2C1=O)CN(C(=O)c1ccc(Cl)c(Cl)c1)[C@H](C)C3 (some centres unmarked) [Example C98] | 0.073 µM | 9.83 µM
25 | CC(c1ccccn1)N1CCn2nc3c(c2C1=O)CN(C(=O)c1ccc(Cl)c(Cl)c1)[C@H](C)C3 (some centres unmarked) [Example C99] | 0.072 µM | > 50 µM
26 | C[C@@H]1Cc2nn3c(c2CN1C(=O)c1cc2c(C#N)c(F)ccc2[nH]1)C(=O)N(Cc1ccccn1)CC3 [Example C100] | 0.085 µM | 15.5 µM

Row | SMILES | EC50 (HBV) | CC50 at 3 days [1]
27 | C[C@@H]1Cc2nn3c(c2CN1C(=O)c1cc2c(F)c(F)ccc2[nH]1)C(=O)N(Cc1ccccn1)CC3 [Example C101] | 0.036 µM | 8.95 µM
28 | C[C@@H]1Cc2nn3c(c2CN1C(=O)c1cc2c(Cl)c(F)ccc2[nH]1)C(=O)N(Cc1ccccn1)CC3 [Example C102] | 0.019 µM | 7.14 µM
29 | CC(c1cncnc1)N1CCn2nc3c(c2C1=O)CN(C(=O)c1ccc(Cl)c(Cl)c1)[C@H](C)C3 (some centres unmarked) [Example C103] | 0.39 µM | > 50 µM
30 | C[C@@H]1Cc2nn3c(c2CN1C(=O)c1ccn2cc(C(F)(F)F)nc2c1)C(=O)N(Cc1ccccn1)CC3 [Example C104] | 0.632 µM | > 50 µM
31 | COc1ccc(CN2CCn3nc4c(c3C2=O)CN(C(=O)c2ccc(Cl)c(Cl)c2)[C@H](C)C4)cn1 [Example C106] | 0.031 µM | 33.8 µM
32 | Cc1c(F)ccc2[nH]c(C(=O)N3Cc4c(nn5c4C(=O)N(Cc4ccccn4)CC5)C[C@H]3C)cc12 [Example C107] | 0.015 µM | 13.2 µM
33 | C[C@@H]1Cc2nn3c(c2CN1C(=O)c1cc2c(F)ccc(F)c2[nH]1)C(=O)N(Cc1ccccn1)CC3 [Example C108] | 0.085 µM | 20 µM
34 | Cc1cc(F)cc2[nH]c(C(=O)N3Cc4c(nn5c4C(=O)N(Cc4ccccn4)CC5)C[C@H]3C)cc12 [Example C109] | 0.013 µM | 18.9 µM
35 | C[C@@H]1Cc2nn3c(c2CN1C(=O)c1cc2c(F)cc(F)cc2[nH]1)C(=O)N(Cc1ccccn1)CC3 [Example C110] | 0.017 µM | 16 µM
36 | Cc1cc(C(=O)N2Cc3c(nn4c3C(=O)N(Cc3ccccn3)CC4)C[C@H]2C)ccc1Cl [Example C111] | 0.086 µM | > 50 µM
37 | C[C@@H]1Cc2nn3c(c2CN1C(=O)c1ccc(Cl)c(C(F)(F)F)c1)C(=O)N(Cc1ccccn1)CC3 [Example C112] | 0.025 µM | > 50 µM
38 | C[C@@H]1Cc2nn3c(c2CN1C(=O)c1ccc(OC(F)F)c(Cl)c1)C(=O)N(Cc1ccccn1)CC3 [Example C113] | 0.257 µM | > 50 µM
39 | Cc1ccc(F)c2[nH]c(C(=O)N3Cc4c(nn5c4C(=O)N(Cc4ccccn4)CC5)C[C@H]3C)cc12 [Example C114] | 0.048 µM | 30.9 µM
40 | C[C@@H]1Cc2nn3c(c2CN1C(=O)c1ccc(C(F)(F)F)cc1)C(=O)N(Cc1ccccn1)CC3 [Example C115] | 0.265 µM | > 50 µM
41 | C[C@@H]1Cc2nn3c(c2CN1C(=O)c1cc2c(Cl)cc(F)cc2[nH]1)C(=O)N(Cc1ccccn1)CC3 [Example C116] | 0.015 µM | 12.4 µM
42 | C[C@@H]1Cc2nn3c(c2CN1C(=O)c1cc2c(Cl)ccc(F)c2[nH]1)C(=O)N(Cc1ccccn1)CC3 [Example C117] | 0.119 µM | 18.2 µM
43 | C[C@@H]1Cc2nn3c(c2CN1C(=O)c1cc2c(C(F)F)c(F)ccc2[nH]1)C(=O)N(Cc1ccccn1)CC3 [Example C124] | 0.011 µM | 26.7 µM
44 | C[C@@H]1Cc2nn3c(c2CN1C(=O)c1cc2c(C(F)(F)F)c(F)ccc2[nH]1)C(=O)N(Cc1ccccn1)CC3 [Example C125] | 0.037 µM | > 50 µM
45 | CC(c1ccc(OC(F)(F)F)cc1)N1CCn2nc3c(c2C1=O)CN(C(=O)c1ccc(Cl)c(Cl)c1)[C@H](C)C3 (some centres unmarked) [Example C127] | 0.133 µM | 15.7 µM
46 | CC(c1ccc(F)nc1)N1CCn2nc3c(c2C1=O)CN(C(=O)c1ccc(Cl)c(Cl)c1)[C@H](C)C3 (some centres unmarked) [Example C128] | 0.081 µM | > 50 µM
47 | CC(c1ccccc1C#N)N1CCn2nc3c(c2C1=O)CN(C(=O)c1ccc(Cl)c(Cl)c1)[C@H](C)C3 (some centres unmarked) [Example C129] | 0.143 µM | > 50 µM
48 | CC(c1ccc(Cl)nc1)N1CCn2nc3c(c2C1=O)CN(C(=O)c1ccc(Cl)c(Cl)c1)[C@H](C)C3 (some centres unmarked) [Example C130] | 0.082 µM | 33.7 µM
49 | COc1cccc(C(C)N2CCn3nc4c(c3C2=O)CN(C(=O)c2ccc(Cl)c(Cl)c2)[C@H](C)C4)c1 (some centres unmarked) [Example C131] | 0.038 µM | 19.6 µM
50 | C[C@@H]1Cc2nn3c(c2CN1C(=O)c1ccc(Cl)c(Cl)c1)C(=O)N(Cc1cncc(Cl)c1)CC3 [Example C132] | 0.061 µM | > 50 µM
51 | C[C@@H]1Cc2nn3c(c2CN1C(=O)c1ccc(Cl)c(Cl)c1)C(=O)N(Cc1nccn1C(F)F)CC3 [Example C133] | 0.332 µM | > 50 µM
52 | CCCn1c(C)nnc1CN1CCn2nc3c(c2C1=O)CN(C(=O)c1ccc(Cl)c(Cl)c1)[C@H](C)C3 [Example C134] | > 2.5 µM | > 50 µM
